Laboratory results: ChEMBL document CHEMBL2203080, “Synthesis and biological evaluation of colchicine C-ring analogues tethered with aliphatic linkers suitable for prodrug derivatisation” (Bioorg Med Chem Lett, 2012)

How the values were obtained:
[1] = tested on: DLD-1; test: Cytotoxicity against human DLD1 cells assessed as growth inhibition; type: functional, cell-based
[2] = tested on: HeLa; test: Resistance factor, ratio of IC50 for human HeLa cells harboring class 3 beta tubulin mutant to IC50 for human HeLa cells; type: functional
[3] = tested on: HeLa; test: Cytotoxicity against human HeLa cells harboring class 3 beta tubulin mutant assessed as growth inhibition; type: functional, cell-based
[4] = tested on: HeLa; test: Cytotoxicity against human HeLa cells assessed as growth inhibition; type: functional, cell-based
[5] = tested on: A2780; test: Resistance factor, ratio of IC50 for multidrug-resistant human A2780AD cells overexpressing p-gp to IC50 for human A2780 cells; type: functional
[6] = Cytotoxicity against multidrug-resistant human A2780AD cells overexpressing p-gp assessed as growth inhibition; type: functional, cell-based; conditions: A2780 ADR
[7] = tested on: A2780; test: Cytotoxicity against human A2780 cells assessed as growth inhibition; type: functional, cell-based

Structure (SMILES): COc1cc2c(c(OC)c1OC)-c1ccc(NCCN)c(=O)cc1[C@@H](NC(C)=O)CC2
- IC50 [1]: 900 nM

Structure (SMILES): COc1cc2c(c(OC)c1OC)-c1ccc(NCCCCCCN)c(=O)cc1[C@@H](NC(C)=O)CC2
- IC50 [1]: > 10000 nM

Structure (SMILES): CNCCNc1ccc2c(cc1=O)[C@@H](NC(C)=O)CCc1cc(OC)c(OC)c(OC)c1-2
- Ratio IC50 [2]: 0.95
- IC50 [3]: 554 nM
- IC50 [4]: 586 nM
- Ratio IC50 [5]: 1.6
- IC50 [6]: 784 nM
- IC50 [7]: 502 nM
- IC50 [1]: 130 nM

Structure (SMILES): COc1cc2c(c(OC)c1OC)-c1ccc(NCCO)c(=O)cc1[C@@H](NC(C)=O)CC2
- Ratio IC50 [2]: 0.85
- IC50 [3]: 164 nM
- IC50 [4]: 192 nM
- Ratio IC50 [5]: 3.3
- IC50 [6]: 241 nM
- IC50 [7]: 71.1 nM
- IC50 [1]: 69.2 nM

Structure (SMILES): COc1cc2c(c(OC)c1OC)-c1ccc(NCCN(C)C(=O)OC(C)(C)C)c(=O)cc1[C@@H](NC(C)=O)CC2
- IC50 [1]: > 10000 nM

Structure (SMILES): COc1cc2c(c(OC)c1OC)-c1ccc(NCCN3CCC[C@@H]3CO)c(=O)cc1[C@@H](NC(C)=O)CC2
- IC50 [1]: > 10000 nM

Structure (SMILES): COc1cc2c(c(OC)c1OC)-c1ccc(NCCN3CCC[C@H]3CO)c(=O)cc1[C@@H](NC(C)=O)CC2
- IC50 [1]: > 10000 nM

Structure (SMILES): COc1cc2c(c(OC)c1OC)-c1ccc(NCCCCCCN3CCCC(O)C3)c(=O)cc1[C@@H](NC(C)=O)CC2 (mixture of isomers)
- IC50 [1]: > 10000 nM

Structure (SMILES): COc1cc2c(c(OC)c1OC)-c1ccc(NCCN3CCCC(O)C3)c(=O)cc1[C@@H](NC(C)=O)CC2 (mixture of isomers)
- IC50 [1]: 8100 nM

Structure (SMILES): COc1cc2c(c(OC)c1OC)-c1ccc(OC)c(=O)cc1[C@@H](NC(C)=O)CC2 [COLCHICINE]
- Ratio IC50 [2]: 1.2
- IC50 [3]: 9.7 nM
- IC50 [4]: 8.2 nM
- Ratio IC50 [5]: 2.5
- IC50 [6]: 16.8 nM
- IC50 [7]: 6.7 nM
- IC50 [1]: 45.5 nM

Structure (SMILES): CC(=O)O[C@H]1C(=O)[C@@]2(C)[C@H]([C@H](OC(=O)c3ccccc3)[C@]3(O)C[C@H](OC(=O)[C@H](O)[C@@H](NC(=O)c4ccccc4)c4ccccc4)C(C)=C1C3(C)C)[C@]1(OC(C)=O)CO[C@@H]1C[C@@H]2O [PACLITAXEL]
- IC50 [3]: 11.2 nM
- IC50 [6]: > 1000 nM
- IC50 [7]: 1100 nM
